Measurements from patent US7998972B2, “1H-imidazo[4,5-c]quinoline derivatives in the treatment of protein kinase dependent diseases” (Novartis AG, priority 2002, dated 2011).

Molecular target: PKB/Akt (Homo sapiens, UniProt P31749)
Test: Inhibition of PKB/Akt in vitro
Format: biochemical
Settings: PDK1-activated GST-PKB, LRRPRTRSFS peptide, 20 μM ATP; read-out: IC50 range class, inhibition of PKB/Akt in vitro
Procedure: The activity as inhibitor of PKB can be determined as follows:
To fully activate PKB, the enzyme is exposed to catalytic amounts of PDK1. GST-PKB (100 ng, Specific Activity: 0.2 nmoles/mg/mins) is incubated for 30 min at room temperature (rt) with purified recombinant GST-PDK1 (1 ng, SA: 2 nmoles/min/mg). The activation is performed as follows: 0.1 μg of GST-PDK1 (0.05 μl) and 10 μg of GST-PKB (0.45 μl) are mixed in a total volume of 0.75 μl containing 15 μM ATP, 3 mM MgCl2, 20 mM Hepes (pH 7.6) for 30 mins at rt. The reaction is subsequently stopped by adding 0.25 μl containing 30% glycerol (w/w) and 0.06 μl of 500 mM EDTA. 100-500 ng (0.01-0.05 μl) activated GST-PKB is incubated in a final volume of 30 μl with 10 μM of the LRRPRTRSFS peptide, 10 mM Mg-acetate, 50 mM MOPS (PH 7.5), 1 mM DTT and 300 μg/ml BSA, 20 μM ATP (0.1 μCi gamma-^33P-ATP). The reaction is carried out for 30 min at rt in the presence of either 1% DMSO or the text compound of the formula I at the required concentration in 1% DMSO. The reaction is terminated by the addition of 20 μl 125 mM EDTA. 30 ill of each sample is spotted onto P81 Whatman and the paper squares processed as described in Ferrari, S. and Thomas, G. (1991) Meth. Enzymol. 200, 159-169. IC50 values are calculated by linear regression analysis of the percentage inhibition of each compound in duplicate.

Chain of PKB/Akt (P31749 whole entry): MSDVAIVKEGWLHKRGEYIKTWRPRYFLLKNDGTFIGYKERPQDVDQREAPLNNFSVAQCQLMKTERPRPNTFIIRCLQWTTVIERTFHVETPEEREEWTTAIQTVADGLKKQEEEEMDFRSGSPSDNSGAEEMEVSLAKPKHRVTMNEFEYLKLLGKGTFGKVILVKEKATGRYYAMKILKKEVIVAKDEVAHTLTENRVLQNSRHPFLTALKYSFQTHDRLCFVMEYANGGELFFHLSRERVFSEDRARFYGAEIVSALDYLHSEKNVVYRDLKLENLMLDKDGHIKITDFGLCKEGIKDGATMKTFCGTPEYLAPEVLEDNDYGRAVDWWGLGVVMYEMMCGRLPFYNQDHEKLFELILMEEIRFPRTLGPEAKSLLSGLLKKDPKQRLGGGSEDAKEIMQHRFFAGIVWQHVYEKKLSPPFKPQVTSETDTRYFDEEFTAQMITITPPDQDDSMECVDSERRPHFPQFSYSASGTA

Row | IC50 [nM] | Structure (SMILES)
1 | 1000 to 2000 | Fc1ccccc1-n1cnc2cnc3ccc(-c4ccccc4)cc3c21 [Example 54, 1-(2-Fluoro-phenyl)-8-phenyl-1H-imidazo[4,5-c]quinoline]
2 | 1000 to 2000 | COc1ccc(-c2ccc3ncc4ncn(-c5ccccc5Cl)c4c3c2)cc1 [Example 137, 1-(2-Chloro-phenyl)-8-(4-methoxy-phenyl)-1H-imidazo[4,5-c]quinoline]
